In patent publication US8178548B2, “Anti-infective agents and uses thereof” (priority 2007, dated 2012):
Where two headings read alike, the source gives them in different places.

How the values were obtained:
[1] = target: T1, HCV polymerase 1B (Δ21 NS5B, HCV Strain 1B BK) (Hepatitis C virus genotype 1b, UniProt P26663); assay: biochemical
T1 construct: 20 to 50 nM Δ21 NS5B
Procedure, shortened: (§1)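 Δ21 NS5B (20–50 nM) was preincubated with inhibitor, 60–125 μM GTP and 2 mM MnCl2 (pH 7.4) for 15 min at RT. RNA synthesis on 5 nM template with 20 μM CTP/ATP and 1 μM ³H-UTP ran 2–4 h at RT. Spermine-precipitated RNA was filter-counted, and IC50 was fit with a tight-binding equation.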

[2] = target: T2, HCV polymerase 1A (Δ21 NS5B, H77) (Hepatitis C virus genotype 1a, UniProt P27958); assay: biochemical
T2 construct: 20 to 50 nM Δ21 NS5B
Procedure, shortened: as §1

[3] = tested on: genotype 1b-Con1 subgenomic replicon cell line; assay: HCV Polymerase Replicon Assay, genotype 1b-Con1 (luciferase reporter); assay type: cell-based; settings: Hepatitis C virus, 72 h, read-out: EC50 1b
[4] = tested on: genotype 1a-H77 subgenomic replicon cell line; assay: HCV Polymerase Replicon Assay, genotype 1a-H77 (luciferase reporter); assay type: cell-based; settings: Hepatitis C virus, 72 h, read-out: EC50 1a

T2 sequence (P27958 2421-2990, stated change not applied): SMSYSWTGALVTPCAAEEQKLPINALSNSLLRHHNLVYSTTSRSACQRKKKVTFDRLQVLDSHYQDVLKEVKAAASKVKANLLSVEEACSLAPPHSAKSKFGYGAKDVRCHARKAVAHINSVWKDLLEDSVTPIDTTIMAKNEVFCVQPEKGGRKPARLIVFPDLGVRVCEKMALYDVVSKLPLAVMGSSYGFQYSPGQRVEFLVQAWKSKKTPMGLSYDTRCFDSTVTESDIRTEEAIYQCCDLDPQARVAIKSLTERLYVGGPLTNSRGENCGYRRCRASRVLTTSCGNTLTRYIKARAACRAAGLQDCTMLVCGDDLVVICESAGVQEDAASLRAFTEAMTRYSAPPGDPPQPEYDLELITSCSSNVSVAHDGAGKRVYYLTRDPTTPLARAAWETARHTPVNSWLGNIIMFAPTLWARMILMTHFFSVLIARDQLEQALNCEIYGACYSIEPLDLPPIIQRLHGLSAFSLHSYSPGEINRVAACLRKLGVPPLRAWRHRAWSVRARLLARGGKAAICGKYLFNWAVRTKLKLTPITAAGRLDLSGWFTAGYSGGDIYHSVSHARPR
T1 sequence (P26663 2420-2989, stated change not applied): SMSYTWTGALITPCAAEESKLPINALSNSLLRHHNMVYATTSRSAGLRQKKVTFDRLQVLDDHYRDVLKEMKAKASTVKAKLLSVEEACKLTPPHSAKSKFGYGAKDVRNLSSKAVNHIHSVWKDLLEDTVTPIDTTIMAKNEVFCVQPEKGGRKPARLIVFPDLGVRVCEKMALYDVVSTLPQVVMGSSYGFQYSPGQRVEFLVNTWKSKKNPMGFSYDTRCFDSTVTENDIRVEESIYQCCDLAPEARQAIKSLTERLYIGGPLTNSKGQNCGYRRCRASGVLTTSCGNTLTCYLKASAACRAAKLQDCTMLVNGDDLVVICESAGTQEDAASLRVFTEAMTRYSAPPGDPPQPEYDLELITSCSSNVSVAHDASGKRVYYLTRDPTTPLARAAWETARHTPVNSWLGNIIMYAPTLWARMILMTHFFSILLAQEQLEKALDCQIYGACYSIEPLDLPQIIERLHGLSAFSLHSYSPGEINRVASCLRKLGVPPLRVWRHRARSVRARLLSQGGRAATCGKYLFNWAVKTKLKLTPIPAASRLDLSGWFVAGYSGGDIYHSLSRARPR

| Compound | IC50 [1] [nM] | IC50 [2] [nM] | EC50 [3] [nM] | EC50 [4] [nM] | EC50 ([3]; replicon 1b-Con1, luciferase, three days) [nM] | EC50 ([4]; replicon 1a-H77, luciferase, three days) [nM] |
| --- | --- | --- | --- | --- | --- | --- |
| COc1c(/C=C/c2ccc(NS(C)(=O)=O)cc2-c2ncco2)cc(-n2ccc(=O)[nH]c2=O)cc1C(C)(C)C [IB-L1-1.26, (E)-N-(4-(3-tert-butyl-5-(2,4-dioxo-3,4-dihydropyrimidin-1(2H)-yl)-2-methoxystyryl)-3-(oxazol-2-yl)phenyl)methanesulfonamide] | 10 to 100 | 10 to 100 | < 10 | 10 to 100 | – | – |
| COc1c(/C=C/c2ccc(NS(C)(=O)=O)cc2C(=O)N2CCCC2)cc(-n2ccc(=O)[nH]c2=O)cc1C(C)(C)C [IB-L1-1.27, N-[4-{(E)-2-[3-tert-butyl-5-(2,4-dioxo-3,4-dihydro-2H-pyrimidin-1-yl)-2-methoxy-phenyl]-vinyl}-3-(pyrrolidine-1-carbonyl)-phenyl]-methanesulfonamide] | 10 to 100 | 10 to 100 | < 10 | 10 to 100 | – | – |
| COc1c(/C=C/c2ccc(NS(C)(=O)=O)cc2N)cc(-n2ccc(=O)[nH]c2=O)cc1C(C)(C)C [IB-L1-1.28, (E)-N-(3-amino-4-(3-tert-butyl-5-(2,4-dioxo-3,4-dihydropyrimidin-1(2H)-yl)-2-methoxystyryl)phenyl)methanesulfonamide] | 10 to 100 | 10 to 100 | < 10 | < 10 | – | – |
| COc1c(/C=C/c2ccc(NS(C)(=O)=O)cc2CN2CC(O)C2)cc(-n2ccc(=O)[nH]c2=O)cc1C(C)(C)C [IB-L1-1.29, N-[4-{(E)-2-[3-tert-butyl-5-(2,4-dioxo-3,4-dihydro-2H-pyrimidin-1-yl)-2-methoxy-phenyl]-vinyl}-3-(3-hydroxy-azetidin-1-ylmethyl)-phenyl]-methanesulfonamide] | 10 to 100 | 10 to 100 | 100 to 1000 | 100 to 1000 | – | – |
| CCOc1c(/C=C/c2ccc(NS(C)(=O)=O)cc2)cc(-n2ccc(=O)[nH]c2=O)cc1C(C)(C)C [IB-L1-1.30, (E)-N-(4-(3-tert-butyl-5-(2,4-dioxo-3,4-dihydropyrimidin-1(2H)-yl)-2-ethoxystyryl)phenyl)methanesulfonamide] | 10 to 100 | 10 to 100 | – | – | 10 to 100 | 100 to 1000 |
| COc1c(/C=C/c2ccc(NS(C)(=O)=O)cc2CNCCC(C)C)cc(-n2ccc(=O)[nH]c2=O)cc1C(C)(C)C [IB-L1-1.31, (E)-N-(4-(3-tert-butyl-5-(2,4-dioxo-3,4-dihydropyrimidin-1(2H)-yl)-2-methoxystyryl)-3-((isopentylamino)methyl)phenyl)methanesulfonamide] | 100 to 1000 | 10 to 100 | > 1000 | > 1000 | – | – |
| COc1c(/C=C/c2ccc(NS(C)(=O)=O)cc2NC(=O)OC(C)(C)C)cc(-n2ccc(=O)[nH]c2=O)cc1C(C)(C)C [IB-L1-1.32, (E)-tert-butyl 2-(3-tert-butyl-5-(2,4-dioxo-3,4-dihydropyrimidin-1(2H)-yl)-2-methoxystyryl)-5-(methylsulfonamido)phenylcarbamate] | 100 to 1000 | 100 to 1000 | 10 to 100 | 100 to 1000 | – | – |
| COc1c(/C=C/c2ccc(NS(C)(=O)=O)cc2CN2CCCC2)cc(-n2ccc(=O)[nH]c2=O)cc1C(C)(C)C [IB-L1-1.33, N-(4-{(E)-2-[3-tert-Butyl-5-(2,4-dioxo-3,4-dihydro-2H-pyrimidin-1-yl)-2-methoxy-phenyl]-vinyl}-3-pyrrolidin-1-ylmethyl-phenyl)-methanesulfonamide] | 100 to 1000 | 100 to 1000 | 10 to 100 | 100 to 1000 | – | – |
| COc1c(/C=C\c2ccc(NS(C)(=O)=O)cc2)cc(-n2ccc(=O)[nH]c2=O)cc1C(C)(C)C [IB-L1-1.34, N-(4-{(Z)-2-[3-tert-Butyl-5-(2,4-dioxo-3,4-dihydro-2H-pyrimidin-1-yl)-2-methoxy-phenyl]-vinyl}-phenyl)-methanesulfonamide] | > 1000 | > 1000 | < 10 | 10 to 100 | – | – |
